From ChEMBL document CHEMBL1201862, “PubChem BioAssay data set” (2004) come the findings set out here.

Some test systems named below: ACHN; BT-549; CCRF-CEM; HCC 2998; HCT-116; HCT-15; IGROV-1; K562; MDA-MB-231; NCI-H226; NCI/ADR-RES; RPMI-8226; RXF 393; SF-295; SN12C; SW-620; UACC-257; SNB-75.
Holding throughout (assay): growth of human tumour cells (NCI), 48 h

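Step 1: Grow cells in 96-well plates. Step 2: Expose to compound for 48 hours at 5 concentrations. Step 3: Interpolate endpoints linearly; if unreached, use highest concentration. The concentration for 50% growth inhibition is given as GI50.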 The source made the active and inactive calls. Rule as the data show it: active = GI50 up to about 1.1 µM and inactive = higher.

On to `CC(C)(C)C1CCC2c3c([nH]c4ccccc34)C3C(=O)N(c4ccc5c(c4)C(=O)c4ccccc4C5=O)C(=O)C3C2C1` (configuration not stated), for which the GI50 in the assay on ACHN is > 100 µM (inactive); in the assay with BT-549 it was > 100 µM (inactive); in the assay with CCRF-CEM, > 100 µM (inactive); in the assay on HCC 2998, > 100 µM (inactive); in the assay on HCT-116, > 100 µM (inactive); in the assay on HCT-15 it was over 100 µM. The GI50 with IGROV-1, in the assay on K562, in the assay on MDA-MB-231, in the assay with NCI-H226, with NCI/ADR-RES and in the assay on RPMI-8226 was > 100 µM (inactive) each time. The GI50 in the assay with RXF 393, in the assay with SF-295, with SN12C, with SW-620 and in the assay with UACC-257 was > 100 µM (inactive) in each case.
Regarding `CCC(C)N1CN(c2ccccc2)C2(CCN(CCCC(=O)c3ccc(F)cc3)CC2)C1=O` (configuration not stated), the GI50 was 1.68 µM (inactive) with ACHN; 13.1 µM (inactive) with BT-549; 0.64 µM (active) in the assay on CCRF-CEM; 0.697 µM (active) in the assay with HCT-116; 5.33 µM in the assay with HCT-15; 3.02 µM (inactive) in the assay on IGROV-1. In addition, the GI50 was 9.18 µM (inactive) in the assay on K562; 10.8 µM (inactive) in the assay on MDA-MB-231; 83 µM (inactive) in the assay on NCI/ADR-RES; 5.52 µM (inactive) in the assay with RPMI-8226; 14.2 µM (inactive) in the assay with RXF 393; 4.55 µM (inactive) in the assay on SF-295. The GI50 was 3.88 µM (inactive) with SN12C, 19.5 µM (inactive) in the assay with SNB-75 and 3.77 µM (inactive) with SW-620.
As for `Cc1cn([C@H]2C[C@H](O)[C@@H](CO)O2)c(=O)nc1N`, the GI50 in the assay on ACHN was > 100 µM (inactive); in the assay with BT-549 it was > 100 µM (inactive); in the assay on CCRF-CEM it was > 100 µM (inactive); with HCT-116 it was > 100 µM (inactive); in the assay on HCT-15, over 100 µM; in the assay on IGROV-1 it was > 100 µM (inactive). Moreover, the GI50 in the assay on K562, in the assay on MDA-MB-231, in the assay with NCI-H226, in the assay with NCI/ADR-RES, in the assay with RPMI-8226 and in the assay on SF-295 was > 100 µM (inactive) throughout. Besides, the GI50 with SN12C, in the assay with SNB-75, in the assay on SW-620 and in the assay on UACC-257 was > 100 µM (inactive) each time.
Consider `C=CCCC1(CC(Sc2ccccc2)P(=O)(c2ccccc2)c2ccccc2)OCCO1` (configuration not stated), for which the GI50 in the assay with ACHN was > 10 µM (inactive); with BT-549, > 10 µM (inactive); in the assay on CCRF-CEM, > 10 µM (inactive); with HCC 2998, > 10 µM (inactive); in the assay with HCT-116, > 10 µM (inactive); with HCT-15, over 10 µM. For the same compound, the GI50 in the assay on IGROV-1, with K562, with MDA-MB-231, in the assay with NCI-H226, in the assay with NCI/ADR-RES and with RPMI-8226 was > 10 µM (inactive) each time. Also, the GI50 in the assay with RXF 393, in the assay with SF-295, in the assay with SN12C, in the assay on SW-620 and with UACC-257 was > 10 µM (inactive) in each case.
In the case of `O=c1c2cc([N+](=O)[O-])ccc2n2n1Cc1ccccc1CC2`, the GI50 in the assay on ACHN is > 100 µM (inactive); in the assay on BT-549, > 100 µM (inactive); in the assay on CCRF-CEM, > 100 µM (inactive); in the assay with HCC 2998, > 100 µM (inactive); in the assay with HCT-116 it was > 100 µM (inactive); with HCT-15 it was over 100 µM. Also, the GI50 in the assay with IGROV-1, in the assay on K562, with MDA-MB-231, with NCI-H226, with NCI/ADR-RES and in the assay with RPMI-8226 was > 100 µM (inactive) in each case. Moreover, the GI50 with RXF 393, in the assay with SF-295, in the assay with SN12C, in the assay with SW-620 and in the assay on UACC-257 was > 100 µM (inactive) in each case.
